The text below walks through data of article PMC5650142, “GPR40 partial agonists and AgoPAMs: Differentiating effects on glucose and hormonal secretions in the rodent” (PLoS ONE, 2017).

The subject of test [1] is GK rats. The test can be described thus: GK rat chronic efficacy (28 days: glucose, food intake, body weight, GLP-1, GIP, PYY, insulin, glucagon). To be noted: 30 mpk; for Fasted glucose on day 28 (Fig 3B): day 28, fasted, individual animals. It is filed as in vivo. Here is the method: At the start of the study, fed (ambient) blood glucose was measured via glucometer at 1 h post lights on, and animals were selected and sorted into treatment groups based on ambient glucose (n = 10/ GK group, n = 6 WKY control). Blood for baseline incretin measurements was collected in the PM via tail vein. Rats were dosed via oral gavage (PO) at a volume of 5 ml/kg daily at approximately 12:30 PM with either vehicle (0.5% methylcellulose), AP1 at 30 mg/kg, or AP3 at 30 mg/kg. MK-8666, a GPR40 partial agonist synthesized at Merck & Co., Inc., Kenilworth, NJ USA [13], at 30 mg/kg was administered in feed (Research Diets, New Brunswick, NJ) and provided ad lib. All compounds were administered to achieve maximal efficacious exposures determined in acute efficacy studies similar to those acute studies described above. In brief, partial agonists and AgoPAMs were titrated in the acute GK rat experiment described above and the exposure associated with maximal efficacy in glucose lowering was noted. Partial agonists and AgoPAMs were then dosed to maintain those exposures up to 24h post dose. […] Rats from this group and the WKY controls were administered vehicle PO when the vehicle, AP1, and AP3 groups were treated. Fed blood glucose, food intake, and body weights were determined on days 10, 17, 23, and 28 of study at 2 h post lights on. Immediately after these measures were taken on days 10, 17, 23, and 28, food was removed. After 5h of fasting, animals were dosed with vehicle or compound and allowed to rest for an additional hour. Glucose, GLP-1, GIP, and PYY were measured after 6h of fasting at 1 hr post dose. Fed blood glucose is described by animals having had ad libidum access to feed up till the time of sampling and occurred at 2h post-lights on where rats were nearing the end of their nocturnal feeding cycle. Fasted blood glucose is described by blood glucose sampled after 6h of fasting where food was removed at 2h post lights on. Please note that the fasted sample was taken 1h post oral dosing. On day 10, blood was collected from the tail vein (20 μl) after morning glucose measures and after 6 hour fast from a subset of n = 3 rats per treatment group to determine the fed and fasted exposure of the compounds in circulation. The blood was stored at 4°C in 0.1 M sodium citrate for subsequent analysis of drug exposure.
Blood for insulin, glucagon, GLP-1, GIP, and PYY measurements was collected into K2EDTA Microtainer tubes (BD, Franklin Lakes, NJ) pre-treated with DPP4 inhibitor (Millipore, Billerica, MA) and cOmplete™ Protease Inhibitor Cocktail Tablets (Roche Diagnostics, Indianapolis, IN). Tubes were centrifuged for 10 minutes at 5000 RPM, and plasma was aliquotted for analysis. Plasma insulin levels were measured via EIA (Mesoscale Discovery ELISA Kit, Gaithersburg MD). Rat plasma total GLP-1 was measured using Total GLP-1 (ver.2) Assay Kit (Cat#: K150JVC). The measurement of active GLP-1 was carried out in a similar manner as that described for total GLP-1 assay with the exception that MSD Active GLP-1 (ver. 2) assay kit (Cat# K150JWC) was used. Rat plasma glucagon was measured using an in-house glucagon assay developed as a MSD format sandwich immunoassay (Merck & Co., Inc., MRL, Kenilworth, NJ USA). The antibody specificity was cross validated via mass- spec using procedures described in Lee et al. Briefly, MSD Streptavidin Gold plates were coated with 2 μg/ml biotin mouse monoclonal antibody generated to glucagon. Test samples were added to the plates and a separate Sulfo- tagged monoclonal antibody was used to detect the captured glucagon protein (2 μg/ml). The ELISA was carried out in the standard reagents in the MSD format. The plate was read on the SECTOR Imager 6000 Reader. Metabolic hormones GIP (Gastric Inhibitory Polypeptide) and PYY (Peptide YY) were measured in rat plasma using the Rat Metabolic Magnetic Bead Panel (EMD Millipore, Billerica, MA). The assay was performed according to manufacturer protocol. […]

Test [2] deals with GK rats. The test can be described thus: Endogenous glucose production in vivo (2H/13C dual tracer).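 On Glucose production, EGP Total: micromoles per kg body weight per minute.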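 On Glucose production, Glycerol: absolute flux in micromoles per kg per minute.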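 On Glucose production, Glycogen: absolute flux in micromoles per kg per minute.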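 On Glucose production, TCA: absolute flux in micromoles per kg per minute.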 On the set-up: species or system rat. To be noted: GK rats, 30 mpk, individual animal values (data for Fig 8); 30 mg/kg. As to the method:
To evaluate the effects of the GPR40 partial and AgoPAM compounds on EGP in vivo, a 2H/13C dual tracer approach was used to calculate EGP and its contributing sources. Following the chronic treatments described above, 0.9% NaCl salinated deuterium oxide (D2O, Sigma-Aldrich, St. Louis, MO) was administered to all animals via intraperitoneal (IP) injection at dose volume of 20 ml/kg at 1 hr post lights on. Animals were then placed in clean cages and food was removed. After a 5 hour fast, blood glucose was measured and animals were dosed with 50 mg/kg [U-13C] glucose (Sigma-Aldrich, St. Louis, MO) IP at 5 ml/kg. Blood was collected via tail snip at time points from 60–150 min post treatment to measure blood glucose (via glucometer) as well as endogenous (12C-glucose) and exogenous (13C-glucose) via GCMS. Following the last tail blood collection, rats were anesthetized with isoflurane and cardiac blood was collected into K2EDTA tubes (Becton, Dickinson and Co., Franklin Lakes, NJ).
The serially collected blood samples were analyzed for 13C-glucose enrichment using GC-MS analysis. The % 13C glucose enrichments were then combined with the total glucose readings to calculate the concentration of 13C-glucose, and these values were modeled with a two-compartment model of whole body glucose metabolism to calculate the average EGP for the period from 0–150 minutes.
Terminal blood samples were analyzed for relative 2H enrichment in plasma glucose using the monoacetone glucose method. Briefly, samples were extracted with 70% perchloric acid at a ratio of 50 μl perchloric acid per 1 ml plasma and centrifuged at 25,000 rcf for 10 min at 4°C. The supernatant was collected and the pH was adjusted to 6–8 using aqueous KOH. The samples were then lyophilized overnight. To convert plasma glucose to monoacetone glucose (MAG), acetone and concentrated sulfuric acid were added to the lyophilized samples and stirred for 4 hours at room temperature. Water was then added and the pH adjusted to 2.0 with 3M Na2CO3. Samples were stirred moderately for 18 hours at room temperature, the pH was adjusted to 7 with 3M Na2CO3, and the samples were completely dried by speed vacuum concentration. The resulting MAG samples were then extracted in hot ethyl acetate, dried overnight under a stream of N2 gas, and purified using Discovery DSC-18 SPE columns (6 ml, 1 g bed weight). For the SPE protocol, MAG samples were reconstituted in 3 ml water and passed over the columns which were pre-washed with 2 ml methanol. The columns were rinsed twice with 1 ml water and the MAG was eluted with 5% acetonitrile. The acetonitrile eluent was then transferred to a glass scintillation vial and freeze dried. Purified MAG samples were solubilized in 180 μl 90% acetonitrile for 2H NMR analysis which was performed using the lock channel of a 950 MHz Bruker NMR spectrometer (David H Murdock Research Institute, DHMRI Kannapolis, NC). Acquisition parameters were as follows: 90° pulse, D1 = 1 s, 1H broadband decoupling, NS = 3600, acquisition time ~ 1 hr. The 2H NMR spectra of the MAG samples were then analyzed using Matlab (The Mathworks Inc, Natick, MA) to model the NMR peaks with a Lorentzian lineshape, and the results were used to calculate integrals for each of the seven NMR resonances in the MAG spectrum. Peaks 2, 5, and 6s were then used to calculate the relative sources of EGP (i.e. gluconeogenesis from TCA cycle substrates, glucose production from triose phosphates, and glycogenolysis) and these values were combined with the total EGP measurement to calculate absolute fluxes of glucose production.

Several values for one entry are separate records, joined by “and”; a condition that tells them apart may be missing. Identical values can stand only once.

For the compound `C[C@H](C(=O)O)[C@H](c1ccc2c(c1)O[C@H](C1CN(Cc3cc(C(F)(F)F)ccc3C(F)(F)F)C1)CC2)C1CC1` [L-846], the “Glucose Over time (S2 File, Fig 2A)” value in the test on GK rats [1] (Day 0, individual animals) is 162 mg/dL and 164 mg/dL and 165 mg/dL and 161 mg/dL and 182 mg/dL and 169 mg/dL and 204 mg/dL and 174 mg/dL and 186 mg/dL and 171 mg/dL; with GK rats [1] (Day 10, individual animals), 98 mg/dl and 122 mg/dl and 115 mg/dl and 114 mg/dl and 99 mg/dl (2×) and 103 mg/dl and 104 mg/dl and 100 mg/dl and 85 mg/dl; in the test on GK rats [1] (Day 17, individual animals), 78 mg/dl and 96 mg/dl and 115 mg/dl and 110 mg/dl (2×) and 103 mg/dl and 108 mg/dl and 107 mg/dl and 101 mg/dl and 109 mg/dl; in the test on GK rats [1] (Day 23, individual animals), 101 mg/dL and 120 mg/dL and 118 mg/dL and 110 mg/dL and 107 mg/dL and 103 mg/dL and 114 mg/dL and 129 mg/dL and 102 mg/dL and 106 mg/dL; in the test with GK rats [1] (Day 28, individual animals) it was 112 mg/dl and 106 mg/dl and 113 mg/dl (3×) and 116 mg/dl and 101 mg/dl and 141 mg/dl and 132 mg/dl and 119 mg/dl. Also, in the test with GK rats [1], the “Fasted glucose on day 28 (Fig 3B)” value is 104 and 110 and 84 and 100 and 96 and 87 and 101 and 99 and 103. Further, the “Glucose production, EGP Total” value in the test with GK rats [2] was 61.0286 µmol/kg/min and 62.3968 µmol/kg/min and 60.5987 µmol/kg/min and 63.0498 µmol/kg/min and 58.2916 µmol/kg/min and 53.1262 µmol/kg/min and 50.1943 µmol/kg/min and 59.3349 µmol/kg/min. For the same compound, the “Glucose production, Glycerol” value with GK rats [2] was 5.2866 µmol/kg/min and 7.6637 µmol/kg/min and 4.613 µmol/kg/min and 10.7135 µmol/kg/min and 9.19 µmol/kg/min and 7.224 µmol/kg/min and 6.179 µmol/kg/min and 7.862 µmol/kg/min. Also, in the test with GK rats [2], the “Glucose production, Glycogen” value was 22.4627 µmol/kg/min and 29.4039 µmol/kg/min and 20.4093 µmol/kg/min and 17.187 µmol/kg/min and 19.1242 µmol/kg/min and 17.4656 µmol/kg/min and 16.9199 µmol/kg/min and 18.0022 µmol/kg/min. Besides, the “Glucose production, TCA” value with GK rats [2] was 33.2793 µmol/kg/min and 25.3292 µmol/kg/min and 35.5765 µmol/kg/min and 35.1493 µmol/kg/min and 29.9769 µmol/kg/min and 28.4363 µmol/kg/min and 27.0955 µmol/kg/min and 33.4708 µmol/kg/min.

As to `COc1ccc(F)c(-c2ccc([C@@H]3CCc4ccc([C@H](C5CC5)[C@H](C)C(=O)O)cc4O3)cc2)c1` [L-254], the “Glucose Over time (S2 File, Fig 2A)” value in the test with GK rats [1] (Day 0, individual animals) was 162 mg/dL and 163 mg/dL and 174 mg/dL and 167 mg/dL and 198 mg/dL and 181 mg/dL and 193 mg/dL and 168 mg/dL and 160 mg/dL and 171 mg/dL; with GK rats [1] (Day 10, individual animals), 111 mg/dl and 110 mg/dl (2×) and 123 mg/dl and 100 mg/dl and 101 mg/dl and 106 mg/dl and 92 mg/dl and 99 mg/dl and 95 mg/dl; with GK rats [1] (Day 17, individual animals), 110 mg/dl and 118 mg/dl and 103 mg/dl (2×) and 138 mg/dl and 137 mg/dl and 96 mg/dl and 95 mg/dl and 124 mg/dl and 108 mg/dl; in the test with GK rats [1] (Day 23, individual animals), 115 mg/dl and 109 mg/dl and 125 mg/dl and 106 mg/dl and 126 mg/dl (2×) and 127 mg/dl and 107 mg/dl and 117 mg/dl and 130 mg/dl; with GK rats [1] (Day 28, individual animals), 114 mg/dl and 98 mg/dl and 108 mg/dl and 105 mg/dl and 131 mg/dl and 113 mg/dl (2×) and 126 mg/dl and 121 mg/dl and 107 mg/dl. Further, the “Fasted glucose on day 28 (Fig 3B)” value in the test on GK rats [1] was 104 and 87 and 118 and 99 and 111 and 114 and 95 and 92. In addition, the “Glucose production, EGP Total” value in the test on GK rats [2] is 61.3579 µmol/kg/min and 60.2311 µmol/kg/min and 73.9647 µmol/kg/min and 47.8618 µmol/kg/min and 64.0721 µmol/kg/min and 48.3077 µmol/kg/min and 46.8784 µmol/kg/min and 45.4367 µmol/kg/min and 55.8377 µmol/kg/min. For the same compound, in the test with GK rats [2], the “Glucose production, Glycerol” value is 10.657 µmol/kg/min and 6.4047 µmol/kg/min and 5.755 µmol/kg/min and 5.519 µmol/kg/min and 3.299 µmol/kg/min and 5.985 µmol/kg/min and 2.316 µmol/kg/min. Besides, the “Glucose production, Glycogen” value in the test with GK rats [2] was 22.6257 µmol/kg/min and 22.3444 µmol/kg/min and 14.5988 µmol/kg/min and 19.8177 µmol/kg/min and 18.6577 µmol/kg/min and 12.2721 µmol/kg/min and 17.7499 µmol/kg/min. In the test with GK rats [2], the “Glucose production, TCA” value is 26.9483 µmol/kg/min and 45.2155 µmol/kg/min and 27.5078 µmol/kg/min and 38.7357 µmol/kg/min and 26.3505 µmol/kg/min and 28.6217 µmol/kg/min and 25.3709 µmol/kg/min.
